# Assay results: patent publication US20090209554A1, “Thiazoliums as transketolase inhibitors” (ARRAY BIOPHARMA INC., priority 2004, published 2009)
# Assays:
# [1] = target: T1, transketolase (TK) in colon carcinoma HCT116 cells (Homo sapiens, UniProt P29401); assay: Cellular transketolase inhibition assay in HCT116; assay type: cell-based; settings: colon carcinoma HCT116, thiamine-free DMEM, 48 h after compound treatment, TK activity in lysate
# T1 construct: endogenous in cells; host or cells: HCT116
# T1 sequence (P29401 1-623): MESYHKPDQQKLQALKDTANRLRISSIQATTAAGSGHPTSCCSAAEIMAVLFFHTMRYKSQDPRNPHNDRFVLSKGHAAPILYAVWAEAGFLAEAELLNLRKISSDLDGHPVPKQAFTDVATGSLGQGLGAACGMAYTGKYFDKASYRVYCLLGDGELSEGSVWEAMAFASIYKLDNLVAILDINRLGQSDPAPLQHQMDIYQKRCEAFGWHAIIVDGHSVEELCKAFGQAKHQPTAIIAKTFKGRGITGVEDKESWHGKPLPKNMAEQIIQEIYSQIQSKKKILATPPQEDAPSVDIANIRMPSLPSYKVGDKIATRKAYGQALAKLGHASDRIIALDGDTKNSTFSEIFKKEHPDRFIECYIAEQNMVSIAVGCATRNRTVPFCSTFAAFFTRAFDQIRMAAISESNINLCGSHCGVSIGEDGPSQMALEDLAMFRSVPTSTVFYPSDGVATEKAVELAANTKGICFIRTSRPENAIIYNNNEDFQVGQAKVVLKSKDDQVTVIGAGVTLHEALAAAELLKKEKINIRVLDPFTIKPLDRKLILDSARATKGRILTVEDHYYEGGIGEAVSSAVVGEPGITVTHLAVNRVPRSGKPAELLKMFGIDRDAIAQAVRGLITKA
# Procedure: Determining Inhibition Constants of TPP Mimetics in Cellular Assay
# Log-phase cells were trypsinized, washed and resuspended in thiamine-free DMEM. Optimization of the initial cell counts was carried out for each cell line prior to IC50 measurements. […] Using this initial cell count, IC50 could be monitored for six days.
# Media containing 8,000 cells (95 μl) were used to seed individual wells in a 96-well clear-bottom cell cultured-treated sterile plate. Inhibitor compounds were dissolved in 100% DMSO as 10 mM solutions. Serial dilutions were then made in 100% DMSO to make up a 100× stock, then diluted to 20× in double-deionized H2O (ddH2O). Twenty-four hours after seeding, 5 μl of 20× inhibitor compound stock solution was added to the cells so that the final concentration of DMSO was 1%. Media were changed after 24 hours. Forty-eight hours after inhibitor compound treatment, the plates were inverted to remove media and blotted on a paper towel. The plates were then either subjected to enzymatic reactions immediately or were frozen at −20° C. for future assays.
# Lysis buffer (20 mM HEPES, pH 7.5, 1 mM EDTA, 0.2 g/l Triton X-100® and 0.2 g/L sodium deoxycholate, supplemented with 1 mM DTT and 1 mM PMSF just before use, 80 μl) were added to each well of the assay plate and allow cell lysis at RT with shaking. Then 15 ul of 5× assay buffer containing final concentrations of 50 mM HEPES, 40 mM KCl, 2.5 mM MgCl2, 5 mM NaArsenate, 1 mM NAD, 2 unit/ml glyceraldehyde-3-phosphate dehydrogenase (GAPDH) was added to the 80 ul of lysate. Reaction kinetics were monitored on a fluorescent plate reader to allow any possible background activity via GAPDH to burn out. Then 5 ul of substrate mix containing final concentrations of 0.5 mM ribose-5-phosphate and 0.5 mM xylulose-5-phosphate was added to initiate the reaction. Monitor reaction kinetics were monitored using a fluorescent plate reader and the slope of the initial linear range was recorded as the velocity of the reaction (FU/min). Enzymatic inhibition was expressed as percent of control wells that were not treated with compounds. The values (y) were plotted as function of the log concentration (x) and fitted to a sigmoidal dose-response curve with variable slopes that bears the equation: y-bottom+(top-bottom)/(1+10̂((log EC50−x)*hillslope)).
# [2] = target: T2, transketolase (purified TK apo enzyme) (Homo sapiens, UniProt P29401); assay: TPK-apoTK coupled cell-free TK inhibition assay (pyrophosphorylated compounds competing with TPP); assay type: biochemical; settings: compound enzymatically pyrophosphorylated by TPK1; 100 nM TK, 20 μM TPP
# T2 sequence (P29401 1-623): T1 sequence (P29401 1-623)
# Procedure: Determining Inhibition Constants of TPP Mimetics in Cell Free Assay (Purified TK apo Enzyme) Compounds scored as TPK1 substrates were then enzymatically converted to pyrophosphate and assessed for an ability to compete with TPP in inhibiting TK activity. The TK inhibition assay was carried out as follows. The pyrophosphorylation reaction mix consisted of 50 mM HEPES, 1 mM DTT, 1 mM MgCl2, pH 8.0, 1 to 10 mM thiamine analog, and 40 mM Mg-ATP. TKP1 (46.2 μg) was added in 10 μL aliquots every hour for 5 hours. The reaction mix was then incubated overnight at 4° C. TPK1 was removed by ultra-filtration using a 10,000 MWCO filter. The extent of reaction was monitored as described above. […] The above reaction mix (40 μL) was placed in a well of a Costar 3695 half-area plate and pre-incubated at room temperature for 30 min. It was then incubated for 2 minutes at 30° C. The reaction was initiated with the addition of 10 μL pentose phosphates (xylulose 5-phosphate and ribose 5-phosphate) with a final concentration of 0.5 mM. The reaction was monitored at 340 nm using a Molecular Devices Spectramax M2 plate reader. “TPK-TK” in the second column in Table 1 designates the thiamine pyrophosphate kinase/transketolase coupled reaction.
Structure (SMILES),IC50 [1],IC50 [2]
Cc1cc(C)c(C[n+]2cc(CCO)sc2C)c(N)n1,26300 nM,
Cc1cc(C)c(C[n+]2csc(CCO)c2)c(N)n1,12500 nM,
Cc1c(CCO)sc[n+]1Cc1ccc(C#N)nc1N,354 nM,57.1 nM
Cc1c(CCO)sc[n+]1Cc1ccc(N2C(=O)c3ccccc3C2=O)nc1,3150 nM,143 nM
Cc1c(CCO)sc[n+]1Cc1cnccc1N,23900 nM,64.2 nM
COc1ncc(CO)c(N)n1,> 100000 nM,
Cc1ncc(C[n+]2csc(CCO)c2C)c(=O)[nH]1,76 nM,
COC(=O)CCc1sc[n+](Cc2ccc(C)nc2N)c1C,2330 nM,
Cc1c(CCO)sc[n+]1Cc1ccncc1,> 100000 nM,421 nM
Cc1ccc(C[n+]2c(Cc3cccnc3)sc(CCO)c2C)c(N)n1,838 nM,
Cc1c(CCO)sc[n+]1Cc1ccc(C(=O)O)cc1,> 100000 nM,
Cc1ccc(C[n+]2c(C)sc(CCO)c2C)c(N)n1 [drawing 55],49 nM,24.6 nM
Cc1ccc(C[n+]2c(C)sc(CO)c2C)c(N)n1,237 nM,
Cc1c(CCO)sc[n+]1Cc1ccccn1,> 100000 nM,
Cc1c(CCO)sc[n+]1Cc1ccc(C(F)(F)F)nc1N,119 nM,104 nM
Cc1ncc(C[n+]2c(C)sc(CCO)c2C)c(N)n1,214 nM,

Structure (SMILES),IC50 [1],IC50 [2]
CC(=O)Nc1ccc(C[n+]2csc(CCO)c2C)c(N)n1,803 nM,22.5 nM
Cc1cncc(C[n+]2csc(CCO)c2C)c1,37800 nM,
Cc1cc(C)c(C[n+]2csc(CCO)c2C)c(N)n1,131 nM,33.8 nM
Cc1c(CCO)sc[n+]1Cc1cccc(N2C(=O)c3ccccc3C2=O)n1,> 100000 nM,
Cc1c(CCO)sc[n+]1Cc1ccc(Cl)nc1N,156 nM,
Cc1c(CCO)sc[n+]1Cc1ccccc1N,> 100000 nM,198 nM
Cc1c(CCO)sc[n+]1Cc1ccccc1,> 100000 nM,336 nM
Cc1ccc(C[n+]2csc([C@@H](O)CO)c2C)c(N)n1,2200 nM,26.8 nM
Cc1cnc(C[n+]2csc(CCO)c2C)c(N)n1,408 nM,15.2 nM
Cc1ccc(C[n+]2c(C)sc(CCO)c2C)c(N)n1 [drawing 48],31 nM,
Cc1ccc(C[n+]2csc(CCC#N)c2C)c(N)n1,2170 nM,
CCc1c(CCO)sc[n+]1Cc1ccc(C)nc1N,1720 nM,
Cc1cc(C[n+]2csc(CCO)c2C)no1,5150 nM,
Cc1ccc(C[n+]2csc(CCO)c2CO)c(N)n1,236 nM,25.1 nM
Cc1c(CCO)sc[n+]1Cc1cccnc1N,111 nM,36.5 nM

# More lines, now with the values ahead:
IC50 [1],IC50 [2],Structure (SMILES)
1030 nM,,Cc1ccc(C[n+]2csc(CCCO)c2C)c(N)n1
9540 nM,29.1 nM,Cc1ccc(C[n+]2csc(CCO)c2)c(N)n1
16500 nM,61.2 nM,Cc1c(CCO)sc[n+]1Cc1nccnc1N
25500 nM,,Cc1ccc(C[n+]2c(-c3ccc4c(c3)OCO4)sc(CCO)c2C)c(N)n1
> 100000 nM,1430 nM,Cc1c(CCO)sc[n+]1Cc1cncnc1
26 nM,75.5 nM,CCc1sc(CCO)c(C)[n+]1Cc1ccc(C)nc1N
> 100000 nM,382 nM,COC(=O)c1cncc(C[n+]2csc(CCO)c2C)c1
> 100000 nM,109 nM,Cc1c(CCO)sc[n+]1Cc1ccccc1[N+](=O)[O-]
> 33000 nM,,Cc1c(CCO)sc[n+]1Cc1ccsc1C(N)=O
489 nM,35.6 nM,Cc1ccc(C[n+]2cc(CCO)sc2C)c(N)n1
> 100000 nM,,Cc1c(CCO)sc[n+]1Cc1cc([N+](=O)[O-])ccc1O
30 nM,22 nM,Cc1ccc(C[n+]2csc(CCO)c2C)c(N)n1
24300 nM,8.83 nM,CC(=O)Nc1ccc(C[n+]2csc(CCO)c2C)cc1
119000 nM,294 nM,Cc1c(CCO)sc[n+]1Cc1cncc(C#N)c1
62 nM,28.1 nM,Cc1ccc(C[n+]2csc([C@H](O)CO)c2C)c(N)n1
34 nM,91.4 nM,Cc1ccc(C[n+]2c(C(C)O)sc(CCO)c2C)c(N)n1 (stereo not shown)
269 nM,53.4 nM,Cc1ccc(C[n+]2csc(C(O)CO)c2C)c(N)n1 (stereo not shown)
6 nM,,CC(=O)OCCc1sc[n+](Cc2ccc(C)nc2N)c1C
3160 nM,90 nM,Cc1cc(C)c(C[n+]2csc(C(O)CO)c2C)c(N)n1 (stereo not shown)
471 nM,387 nM,Cc1c(CCO)sc[n+]1Cc1ccc(C(F)(F)F)nc1
> 33000 nM,123 nM,Cc1c(CCO)sc[n+]1Cc1cccnc1C#N
1610 nM,6.95 nM,Cc1c(CCO)sc[n+]1Cc1ccc(N)nc1
> 100000 nM,851 nM,Cc1ncc(C[n+]2c(C(C)O)sc(CCO)c2C)c(N)n1 (stereo not shown)
> 33000 nM,138 nM,Cc1c(CCO)sc[n+]1Cc1ccsc1C#N
731 nM,70.7 nM,Cc1c(CCO)sc[n+]1Cc1cccnc1
862 nM,109 nM,Cc1cnc(N)c(C[n+]2csc(CCO)c2C)c1
170000 nM,,COc1ccc(C[n+]2csc(CCO)c2C)c(NC(C)=O)n1
74 nM,,CCc1ccc(C[n+]2csc(CCO)c2C)c(N)n1
